Data on nine compounds can be found in patent US10987349B2, “Antitumor agent and bromodomain inhibitor” (FUJIFILM Corporation, priority 2016, dated 2021).

Molecules are shown by their SMILES.

The target in one assay is T1, BRD2 BD2 (Homo sapiens, UniProt P25440).
T1 construct: BRD2 BD2, BRD3 BD2 and BRD4 BD2 (Cisbio); purchased Cisbio
Put plainly: Binding assay, BRD2 BD2 to acetylated histone H4 Peptide-Biotin (EPIgeneous Binding Domain Kit B). To be noted: for inhibition at 0.3 µM: test compound at 300 nmol/L, read-out: Binding inhibition percentage BRD2 BD2. A digest of the protocol:
(§1)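 HTRF binding of GST-tagged BD2 (20 nmol/L working stock) to biotinylated acetyl-histone H4 peptide (250 nmol/L working stock), using streptavidin-XL665 and anti-GST Eu cryptate. Incubated 20 h at room temperature; 665/620 nm ratio versus DMSO gives % inhibition; IC50 by four-parameter fit, or % inhibition at 300 nmol/L.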

For another assay, the target named is T2, BRD4 BD1 (Homo sapiens, UniProt O60885).
T2 construct: BRD2 BD1, BRD3 BD1 and BRD4 BD1 (Cisbio); purchased Cisbio
Put plainly: Binding assay, BRD4 BD1 to acetylated histone H4 Peptide-Biotin (EPIgeneous Binding Domain Kit A). To be noted: for inhibition at 0.3 µM: test compound at 300 nmol/L, read-out: Binding inhibition percentage BRD4 BD1. A digest of the protocol: (§2)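 HTRF competition: bromodomain protein (added at 20 nmol/L) and biotinylated tetra-acetyl H4(1-25) peptide (added at 25 nmol/L) were incubated with compound, streptavidin-d2 and anti-GST Eu cryptate for 20 h at room temperature. Inhibition came from the 665/620 nm ratio relative to DMSO; IC50 by four-parameter fit; some compounds were tested only at 300 nmol/L final.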

For assay [1], the system named is human undifferentiated thymoma cell line Ty-82. Put plainly: Cell growth test (Cell Titer Glo) Ty-82. Type of assay: cell-based. The following applies: TY82, 3 to 5 days. From the text:
(§3) The human undifferentiated thymoma cell line Ty-82 (JCRB), the human acute myeloid leukemia cell lines MV4-11 (ATCC), MOLM-13 (ATCC) and RS4-11 (ATCC), the human lymphoma cell line Raji (JCRB), the human cervical epidermoid carcinoma cell line Hela (JCRB), the human lung adenocarcinoma cell line A549 (ATCC), the human colon cancer cell lines DLD1 (DS Pharma) and HCT116 (DS Pharma), and the human pancreatic cancer cell line MIAPACA-2 (ATCC) were used to carry out a cell growth test.
(§4) Ty-82, MV4-11, MOLM-13, RS4-11, Raji and DLD1 were each seeded in a well plate, in which Roswell Park Memorial Institute (RPMI)-1640 medium supplemented with penicillin/streptomycin and fetal bovine serum (FBS) with a final concentration of 10% was placed. Hela was seeded in Dulbecco's Modified Eagle's medium (DMEM) supplemented with penicillin/streptomycin and FBS with a final concentration of 10%. A549 and MIAPACA-2 were each seeded in a well plate, in which Minimum Essential Medium (MEM) supplemented with penicillin/streptomycin and FBS with a final concentration of 10% was placed. HCT116 was seeded in a well plate, in which McCoy's 5A medium supplemented with penicillin/streptomycin and FBS with a final concentration of 10% was placed.
(§5) Thereafter, a medium containing a test compound serially diluted with DMSO, or DMSO, was added to each well of the plate, in which the cells had been seeded, and the obtained mixture was then cultured under conditions of 37° C. and 5% CO2 for 3 to 5 days. Cell Titer Glo reaction solution (Promega) was added to the culture, and the amount of luminescence was then measured using Envision plate reader (PerkinElmer). Since the amount of luminescence is in proportion to the concentration of adenosine triphosphate (ATP) in cells, the amount of luminescence was used as an indicator of the number of living cells. The growth inhibition percentage of the test compound in each concentration was calculated according to the following equation. Growth inhibition percentage (%)=(amount of luminescence in test compound−added well)/(amount of luminescence in DMSO−added well)×100
(§6) The growth inhibition percentage of the test compound in each concentration was plotted by performing a non-linear regression analysis [(log (inhibitor) vs. response—Variable slope (four parameters)], using Graphpad prism 5, and a 50% growth inhibitory concentration [GI50 (nmol/L)] was then calculated.
In general terms: Cellular ATP, detected with luciferase, serves as a proxy for viable cell number.

The subject of assay [2] is human acute myeloid leukemia cell line MV4-11. Kind of assay: Cell growth test (Cell Titer Glo) MV4-11. Type of assay: cell-based. To be noted: 3 to 5 days.
From the text: as §3, §4, §5, §6

Another assay addresses T3, BRD3 BD1 (Homo sapiens, UniProt Q15059).
T3 construct: BRD2 BD1, BRD3 BD1 and BRD4 BD1 (Cisbio); purchased Cisbio
Kind of assay: Binding assay, BRD3 BD1 to acetylated histone H4 Peptide-Biotin (EPIgeneous Binding Domain Kit A). To be noted: for inhibition at 0.3 µM: test compound at 300 nmol/L, read-out: Binding inhibition percentage BRD3 BD1. Put shortly:
as §2

Another assay has as its target T4, BRD2 BD1 (Homo sapiens, UniProt P25440).
T4 construct: BRD2 BD1, BRD3 BD1 and BRD4 BD1 (Cisbio); purchased Cisbio
Kind of assay: Binding assay, BRD2 BD1 to acetylated histone H4 Peptide-Biotin (EPIgeneous Binding Domain Kit A). The following applies: for inhibition at 0.3 µM: test compound at 300 nmol/L, read-out: Binding inhibition percentage BRD2 BD1. Put shortly: as §2

For a further assay, the target named is T5, BRD3 BD2 (Homo sapiens, UniProt Q15059).
T5 construct: BRD2 BD2, BRD3 BD2 and BRD4 BD2 (Cisbio); purchased Cisbio
T5 sequence (Q15059 306-415 limits assumed): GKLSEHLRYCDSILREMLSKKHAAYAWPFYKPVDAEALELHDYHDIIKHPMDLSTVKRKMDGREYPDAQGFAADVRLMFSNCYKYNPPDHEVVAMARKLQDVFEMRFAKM
Kind of assay: Binding assay, BRD3 BD2 to acetylated histone H4 Peptide-Biotin (EPIgeneous Binding Domain Kit B). The following applies: for inhibition at 0.3 µM: test compound at 300 nmol/L, read-out: Binding inhibition percentage BRD3 BD2. A digest of the protocol: as §1

Assay [3] concerns human acute myeloid leukemia cell line MOLM-13. Kind of assay: Cell growth test (Cell Titer Glo) MOLM-13. To be noted: 3 to 5 days. Type of assay: cell-based.
From the text: as §3, §4, §5, §6

A further assay addresses T6, BRD4 BD2 (Homo sapiens, UniProt O60885).
T6 construct: BRD2 BD2, BRD3 BD2 and BRD4 BD2 (Cisbio); purchased Cisbio
Kind of assay: Binding assay, BRD4 BD2 to acetylated histone H4 Peptide-Biotin (EPIgeneous Binding Domain Kit B). The following applies: for inhibition at 0.3 µM: test compound at 300 nmol/L, read-out: Binding inhibition percentage BRD4 BD2. Put shortly: as §1

Assay [4] has as its system MV4-11 subcutaneously transplanted tumor. Kind of assay: Medicinal effect test, MV4-11-subcutaneously-transplanted cancer-bearing mouse models, oral administration. Type of assay: in vivo. To be noted: orally, once per day, 14 days, BALB/c nu/nu mice. Here is the method: The human acute myeloid leukemia cell line MV4-11 (ATCC) was suspended in a mixture of RPMI-1640 medium and Matrigel (Corning), and the obtained mixture was then subcutaneously transplanted into 6-week-old female BALB/c nu/nu mice (CLEA Japan, Inc.). After confirming that the average tumor volume exceeded 200 mm^3, a test compound was dissolved in a solvent (a 0.5% methyl cellulose aqueous solution or water containing 1 equivalent of hydrochloric acid), and the obtained solution was then orally administered to the mice at a daily dose of 10 to 30 mg/kg, once per day, for 14 days. As a negative control, a solvent administration group involving administration of a 0.5% methyl cellulose aqueous solution was established. The tumor diameter was measured on a daily basis, and the tumor volume was calculated. The tumor volume was calculated by measuring the major axis and minor axis of the tumor and then applying the following equation. Tumor volume (mm^3)=[major axis (mm)×minor axis (mm)×minor axis (mm)]/2
T/C (%) was calculated from the average tumor volume of each group according to the following equation, and medicinal effects were then evaluated. T/C(%)=[1−(average tumor volume of drug administration group)/(average tumor volume of solvent administration group)]×100%

T3 sequence (Q15059 34-140 limits assumed): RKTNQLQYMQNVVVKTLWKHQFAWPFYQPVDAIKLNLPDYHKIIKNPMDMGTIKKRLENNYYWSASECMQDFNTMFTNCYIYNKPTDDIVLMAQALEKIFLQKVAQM
T4 sequence (P25440 74-180 limits assumed): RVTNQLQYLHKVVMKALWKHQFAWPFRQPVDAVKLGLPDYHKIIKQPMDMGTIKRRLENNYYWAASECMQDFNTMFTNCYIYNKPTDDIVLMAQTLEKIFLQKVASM
T1 sequence (P25440 344-453 limits assumed): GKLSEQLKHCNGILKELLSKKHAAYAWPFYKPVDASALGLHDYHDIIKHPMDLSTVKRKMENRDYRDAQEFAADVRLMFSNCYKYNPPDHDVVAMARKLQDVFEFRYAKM

As for `CCn1c(=O)cc(C2CCN(C)CC2)c2cc(C(=O)N3CCCc4ccccc43)ccc21` [Example 11, 6-(3,4-dihydroquinolin-1 (2H)-ylcarbonyl)-1-ethyl-4-(1-methylpiperidin-4-yl)quinolin-2(1H)-one], the inhibition (in general, the change of the read-out against control, counted positive when it falls) at 0.3 µM at BRD2 BD2 came out at 79%; at BRD4 BD1 it was 94%; at BRD3 BD1, 94%; on BRD2 BD1, 94%; on BRD3 BD2, 83%; on BRD4 BD2, 83%. Also, the GI50 – broadly, the concentration giving 50% growth inhibition – in assay [1] turned out to be 23 nM; in assay [2] it was 22 nM; in assay [3] it was 44 nM.

Turning to `CCn1c(=O)cc(N2CCOCC2)c2cc(-n3c(-c4ccc(Cl)cc4)cn(C)c3=O)ccc21` [Example 246, 6-(5-(4-chlorophenyl)-3-methyl-2-oxo-2,3-dihydro-1H-imidazol-1-yl)-1-ethyl-4-(morpholin-4-yl)quinolin-2(1H)-one], the IC50 (as a rule, the concentration that gives 50% inhibition) came to 18 nM on BRD2 BD2; 40 nM on BRD4 BD1; 91 nM at BRD3 BD1; 144 nM at BRD2 BD1; 12 nM at BRD3 BD2; 7 nM on BRD4 BD2. Besides, the inhibition at 0.3 µM worked out at 82% at BRD2 BD2; 67% on BRD4 BD1; 55% at BRD3 BD1; 34% at BRD2 BD1; 90% at BRD3 BD2; 84% on BRD4 BD2. Moreover, the “T/C (%)” value was 13% in [4] (10 mg/kg) and 33% in assay [4] (30 mg/kg). The results for the GI50 in [1], in [2] and in assay [3] were 17 nM, 16 nM and 43 nM, respectively.

As for `CCn1c(=O)cc(N2CCOCC2)c2cc(-n3c(-c4ccccc4)cn(C(C)C)c3=O)ccc21` [Example 247, 1-ethyl-4-(morpholin-4-yl)-6-(2-oxo-5-phenyl-3-(propan-2-yl)-2,3-dihydro-1H-imidazol-1-yl)quinolin-2(1H)-one], the inhibition at 0.3 µM was 90% on BRD2 BD2; 94% at BRD4 BD1; 93% at BRD3 BD1; 83% at BRD2 BD1; 91% at BRD3 BD2; 89% on BRD4 BD2. In addition, the “T/C (%)” value in assay [4] (30 mg/kg) was found to be 33%. Moreover, the GI50 in [1] is 11 nM; in assay [2] it was 16 nM; in [3] it was 43 nM.

For the compound `CCn1c(=O)cc(C2CCC(O)CC2)c2cc(C(=O)N(C)c3ccc(Cl)cc3)ccc21` (stereo not drawn) [Example 286, N-(4-chlorophenyl)-1-ethyl-4-(4-hydroxycyclohexyl)-N-methyl-2-oxo-1,2-dihydroquinoline-6-carboxamide], the inhibition at 0.3 µM is 89% on BRD2 BD2; 95% at BRD4 BD1; 94% on BRD3 BD1; 91% on BRD2 BD1; 93% at BRD3 BD2; 89% at BRD4 BD2.

In the case of `CCn1c(=O)cc(C2CCN(C(C)=O)CC2)c2cc(C(=O)N(C)c3ccc(C)cc3)ccc21` [Example 290, 4-(1-acetylpiperidin-4-yl)-1-ethyl-N-methyl-N-(4-methylphenyl)-2-oxo-1,2-dihydroquinoline-6-carboxamide], the IC50 on BRD2 BD2 came out at 86 nM; on BRD4 BD1, 6 nM; at BRD3 BD1 it was 15 nM; at BRD2 BD1, 45 nM; at BRD3 BD2, 59 nM; on BRD4 BD2, 22 nM.

With `CCn1c(=O)cc(C)c2cc(-c3cccnc3-c3ccccc3)ccc21` [Example 291, 1-ethyl-4-methyl-6-(2-phenylpyridin-3-yl)quinolin-2(1H)-one], the inhibition at 0.3 µM came to 83% on BRD2 BD2; 85% on BRD4 BD1; 88% on BRD3 BD1; 64% at BRD2 BD1; 91% on BRD3 BD2; 84% at BRD4 BD2.

Take `CCn1c(=O)cc(C2CCN(C)CC2)c2cc(C(=O)N(C)c3ccc(C)c(F)c3)ccc21` [Example 292, 1-ethyl-N-(3-fluoro-4-methylphenyl)-N-methyl-4-(1-methylpiperidin-4-yl)-2-oxo-1,2-dihydroquinoline-6-carboxamide]: the inhibition at 0.3 µM amounted to 81% at BRD2 BD2; 95% at BRD4 BD1; 94% at BRD3 BD1; 93% at BRD2 BD1; 87% at BRD3 BD2; 85% at BRD4 BD2.

Regarding `CCn1c(=O)cc(C2CCN(C)CC2)c2cc(C(=O)N(C)c3ccc(C)c(Cl)c3)ccc21` [Example 293, N-(3-chloro-4-methylphenyl)-1-ethyl-N-methyl-4-(1-methylpiperidin-4-yl)-2-oxo-1,2-dihydroquinoline-6-carboxamide], the inhibition at 0.3 µM on BRD2 BD2 is 88%; on BRD4 BD1, 94%; at BRD3 BD1, 93%; at BRD2 BD1, 94%; at BRD3 BD2, 90%; on BRD4 BD2, 87%.

Consider `CCn1c(=O)cc(C2CCN(C)CC2)c2cc(C(=O)N(C)c3ccc(C)c(C)c3)ccc21` [Example 294, N-(3,4-dimethylphenyl)-1-ethyl-N-methyl-4-(1-methylpiperidin-4-yl)-2-oxo-1,2-dihydroquinoline-6-carboxamide], for which the inhibition at 0.3 µM on BRD2 BD2 is 84%; at BRD4 BD1, 94%; at BRD3 BD1, 95%; at BRD2 BD1, 94%; on BRD3 BD2, 90%; on BRD4 BD2 it was 85%.
